Laboratory results published in ChEMBL document CHEMBL1201862, “PubChem BioAssay data set” (2004).
Activity calls are given as the source filed them.

Experiments:
Vero [1] = assay: cells; assay type: functional, cell-based; details: Chlorocebus sabaeus
Vero [2] = assay: cells; assay type: functional; details: Chlorocebus sabaeus
Cytochrome P450 3A4 = Cytochrome P450 3A4 (Homo sapiens, UniProt P08684);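 also: CYP3A4 tested as one member of a cytochrome P450 panel screen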
Cytochrome P450 2C9 = Cytochrome P450 2C9 (Homo sapiens, UniProt P11712)
Cytochrome P450 2D6 [3] = molecular target: T1, Cytochrome P450 2D6 (Homo sapiens, UniProt P10635);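 also: CYP2D6 member of a cytochrome P450 panel assay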
A-375 [4] = assay: A375 melanoma cell viability reduction, dose response, counter-screen for MITF modulator project, cherry-pick samples, set 2 (AID 540335); assay type: functional, cell-based; details: Homo sapiens
A-375 [5] = assay: MITF: Counter assay: A375 proliferation Measured in Cell-Based System Using Plate Reader - 2084-03_Inhibitor_Dose_DryPowder_Activity. [Related pubchem assays (depositor defined):AID488944]; assay type: functional; details: Homo sapiens
[6] = molecular target: T2, Zinc finger protein mex-5 (Caenorhabditis elegans, UniProt Q9XUB2); assay: MEX-5/TCR-2 RNA interaction inhibitors, dose response, biochemical, C. elegans, fluorescence polarization (AID 1960)
T2 sequence (Q9XUB2 whole entry): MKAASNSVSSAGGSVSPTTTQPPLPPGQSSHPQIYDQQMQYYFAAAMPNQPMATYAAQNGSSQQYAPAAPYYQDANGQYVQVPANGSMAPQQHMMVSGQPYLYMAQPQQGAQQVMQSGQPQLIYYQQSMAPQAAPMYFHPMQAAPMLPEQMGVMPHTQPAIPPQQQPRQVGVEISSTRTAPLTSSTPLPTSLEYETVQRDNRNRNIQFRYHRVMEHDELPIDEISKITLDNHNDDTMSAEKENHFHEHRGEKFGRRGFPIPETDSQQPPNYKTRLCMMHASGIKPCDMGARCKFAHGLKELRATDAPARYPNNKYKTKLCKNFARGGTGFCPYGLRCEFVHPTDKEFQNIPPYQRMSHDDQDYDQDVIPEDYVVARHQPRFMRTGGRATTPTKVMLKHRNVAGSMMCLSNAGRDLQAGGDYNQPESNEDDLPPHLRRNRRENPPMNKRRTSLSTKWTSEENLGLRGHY

[7] = molecular target: T3, RNA-binding protein pos-1 (Caenorhabditis elegans, UniProt G5EF15); assay: inhibitors of POS-1/mex-3 RNA binding, dose response, biochemical, fluorescence polarization (AID 1964);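 also: purified POS-1 fused to maltose binding protein made in E. coli; potency of compounds blocking POS-1 binding to fluorescent RNA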
T3 sequence (G5EF15 whole entry): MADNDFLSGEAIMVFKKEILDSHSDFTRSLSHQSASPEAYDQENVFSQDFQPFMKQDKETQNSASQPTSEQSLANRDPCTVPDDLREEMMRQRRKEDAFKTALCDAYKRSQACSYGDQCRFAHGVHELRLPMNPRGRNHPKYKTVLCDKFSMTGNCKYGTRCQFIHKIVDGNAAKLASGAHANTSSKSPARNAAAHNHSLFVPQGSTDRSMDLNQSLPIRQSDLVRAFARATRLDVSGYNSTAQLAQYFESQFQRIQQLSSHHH

Keap1/Nrf2 = Keap1/Nrf2 (Homo sapiens, UniProt Q14145); assay: Keap1-Nrf2 protein-protein interaction inhibitors, dose response, biochemical, fluorescence polarization, cherry-picked samples (AID 588683)
[8] = Luminescence Cell-Based Dose Response to Identify Activators of 5'UTR Stem-Loop Driven Prion Protein mRNA Translation in H4-C Neuroglioblastoma Cells. [Related pubchem assays: 1829 (Project Summary), 1814 (Primary HTS)]; assay type: functional
HeLa = assay: HeLa cell cytotoxicity, dose response, cytotoxicity control for MITF activator project, CellTiter-Glo luminescence, cherry-pick samples (AID 540259); assay type: functional, cell-based; details: Homo sapiens
[9] = Luminescence Cell-Based Dose Confirmation to Identify Activators of 5'UTR Stem-Loop Driven Alpha-Synuclein mRNA Translation in H4 Neuroglioblastoma Cells. [Related pubchem assays: 1829 (Project Summary), 1814 (Primary HTS)]; assay type: functional
[10] = Luminescence Cell-Based Dose Response HTS to Identify Activators of Luciferase Translation or Activity in H4 […] Cells. [Related pubchem assays: 1829 (Project Summary), 1814 (Primary HTS)]; assay type: functional
[11] = Luminescence Cell-Based Dose Response to Identify Activators of Luciferase Translation or Activity in H4-C Neuroglioblastoma Cells. [Related pubchem assays: 1829 (Project Summary), 1814 (Primary HTS)]; assay type: functional
H4 = assay: Luminescence Cell-Based Dose Response HTS to Identify Activators of 5'UTR Stem-Loop Driven Prion Protein mRNA Translation in H4 Neuroglioblastoma Cells. [Related pubchem assays: 1829 (Project Summary), 1814 (Primary HTS)]; assay type: functional; details: Homo sapiens
[12] = molecular target: T4, Nuclear receptor subfamily 0 group B member 1 (Homo sapiens, UniProt P51843); assay: Luminescence-based cell-based high throughput dose response assay for inhibitors of the orphan nuclear receptor subfamily 0, group B, member 1 (DAX1; NR0B1). [Related pubchem assays (depositor defined):AID504766, AID504790]; assay type: functional
T4 sequence (P51843 whole entry): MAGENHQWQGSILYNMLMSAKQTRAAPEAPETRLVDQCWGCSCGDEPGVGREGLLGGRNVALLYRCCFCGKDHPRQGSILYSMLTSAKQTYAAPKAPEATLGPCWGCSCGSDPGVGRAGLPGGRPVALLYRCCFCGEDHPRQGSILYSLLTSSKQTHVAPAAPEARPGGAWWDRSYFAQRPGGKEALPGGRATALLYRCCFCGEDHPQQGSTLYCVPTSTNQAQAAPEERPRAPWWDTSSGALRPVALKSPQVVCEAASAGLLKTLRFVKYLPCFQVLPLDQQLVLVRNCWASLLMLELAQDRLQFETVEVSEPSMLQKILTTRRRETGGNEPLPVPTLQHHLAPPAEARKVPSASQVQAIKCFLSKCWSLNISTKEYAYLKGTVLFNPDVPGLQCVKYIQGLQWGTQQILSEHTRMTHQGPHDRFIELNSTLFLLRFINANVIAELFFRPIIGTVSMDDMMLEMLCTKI

HEK293 = assay: cells; assay type: functional, cell-based; details: Homo sapiens
[13] = Luminescence Cell-Based Dose Confirmation HTS to Identify Activators of 5'UTR Stem-Loop Driven Alpha-Synuclein mRNA Translation in H4 Neuroglioblastoma Cells. [Related pubchem assays: 1829 (Project Summary), 1814 (Primary HTS)]; assay type: functional
Cytochrome P450 2D6 [14] = molecular target: T1, Cytochrome P450 2D6; remark: listed apart in the source
Cytochrome P450 1A2 = molecular target: T5, Cytochrome P450 1A2 (Homo sapiens, UniProt P05177);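 also: PubChem cytochrome P450 panel assay, CYP1A2 panel member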
T5 sequence (P05177 whole entry): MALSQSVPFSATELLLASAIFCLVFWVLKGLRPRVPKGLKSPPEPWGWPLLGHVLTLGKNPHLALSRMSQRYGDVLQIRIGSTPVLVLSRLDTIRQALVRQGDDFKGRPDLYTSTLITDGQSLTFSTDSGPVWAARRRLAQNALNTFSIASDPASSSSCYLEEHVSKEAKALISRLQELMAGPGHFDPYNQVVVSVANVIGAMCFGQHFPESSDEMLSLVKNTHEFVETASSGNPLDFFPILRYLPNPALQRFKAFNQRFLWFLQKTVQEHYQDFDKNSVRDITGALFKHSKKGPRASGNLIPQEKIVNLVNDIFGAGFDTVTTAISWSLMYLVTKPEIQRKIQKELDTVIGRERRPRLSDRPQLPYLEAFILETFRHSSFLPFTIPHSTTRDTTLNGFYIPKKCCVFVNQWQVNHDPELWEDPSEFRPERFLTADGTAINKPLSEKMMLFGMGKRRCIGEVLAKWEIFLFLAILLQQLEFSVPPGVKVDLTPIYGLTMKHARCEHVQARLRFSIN

[15] = inhibitors of SNCA 5'UTR-driven reporter translation, confirmation, H4 neuroglioma cells, luminescence (AID 1988); assay type: functional, cell-based
[16] = inhibitors of firefly luciferase expression or activity, dose response, H4 neuroglioma cells, luminescence (AID 1990); assay type: functional, cell-based
[17] = Luminescence Cell-Based Dose Response HTS to Identify Inhibitors of 5'UTR Stem-Loop Driven Prion Protein mRNA Translation in H4 Neuroglioblastoma Cells. [Related pubchem assays: 1827 (Project Summary), 1813 (Primary HTS)]; assay type: functional
Cytochrome P450 2C19 = Cytochrome P450 2C19 (Homo sapiens, UniProt P33261); assay: Cytochrome panel assay with activity outcomes. Panel member name: p450-cyp2c19 Compounds with AC50 equal or less than 10 uM are considered active; assay type: functional; details: read-out: AC50
[18] = HEp-2 cell cytotoxicity, dose response, cytotoxicity control for RSV inhibitor project, HTS (AID 2410); assay type: functional; details: human respiratory syncytial virus
[19] = RKO cell viability reduction, dose response, CellTiter-Glo luminescence (AID 1117322); assay type: functional
[20] = HeLa 4N DNA content increase, dose response, cell-based, IC50 (AID 1117351); assay type: functional
[21] = Concentration-dependent survival of SW480 colon cancer line, luminescence detection with CellTiter-Glo, half-maximal inhibitory concentration (AID 1117338); assay type: functional
[22] = cytotoxicity toward HT-29 cells – cell-based, CellTiter-Glo luminescence, IC50, dose response (AID 1117330); assay type: functional
[23] = HeLa 2N DNA content increase, dose response, cell-based, IC50 (AID 1117349); assay type: functional
[24] = CellTiter-Glo luminescent dose response of DLD-1 viability loss (AID 1117352); assay type: functional
[25] = HCT116 cell viability decrease, GSK3B pretreatment – CellTiter-Glo, IC50, dose response (AID 1117339); assay type: functional; details: HCT-116
[26] = cytotoxicity toward HCT116 cells – cell-based, CellTiter-Glo luminescence, IC50, dose response (AID 1117332); assay type: functional; details: HCT-116
[27] = SNU-C1 cell viability reduction, dose response, CellTiter-Glo luminescence (AID 1117323); assay type: functional, cell-based

T1 sequence (P10635 whole entry): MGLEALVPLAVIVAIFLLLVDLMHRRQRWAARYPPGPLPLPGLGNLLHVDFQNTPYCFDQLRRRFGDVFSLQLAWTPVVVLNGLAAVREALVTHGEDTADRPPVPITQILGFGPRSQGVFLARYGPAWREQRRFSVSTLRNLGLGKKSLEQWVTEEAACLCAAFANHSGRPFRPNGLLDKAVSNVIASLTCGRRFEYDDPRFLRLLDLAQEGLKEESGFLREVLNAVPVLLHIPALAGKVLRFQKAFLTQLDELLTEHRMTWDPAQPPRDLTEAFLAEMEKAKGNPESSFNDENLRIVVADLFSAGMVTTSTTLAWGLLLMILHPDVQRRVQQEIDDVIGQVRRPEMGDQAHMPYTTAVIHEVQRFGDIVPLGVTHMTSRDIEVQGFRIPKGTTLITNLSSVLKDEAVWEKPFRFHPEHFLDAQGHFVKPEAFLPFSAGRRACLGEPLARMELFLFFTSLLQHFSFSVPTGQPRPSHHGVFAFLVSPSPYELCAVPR
Sequence of Cytochrome P450 2C9 (P11712 whole entry): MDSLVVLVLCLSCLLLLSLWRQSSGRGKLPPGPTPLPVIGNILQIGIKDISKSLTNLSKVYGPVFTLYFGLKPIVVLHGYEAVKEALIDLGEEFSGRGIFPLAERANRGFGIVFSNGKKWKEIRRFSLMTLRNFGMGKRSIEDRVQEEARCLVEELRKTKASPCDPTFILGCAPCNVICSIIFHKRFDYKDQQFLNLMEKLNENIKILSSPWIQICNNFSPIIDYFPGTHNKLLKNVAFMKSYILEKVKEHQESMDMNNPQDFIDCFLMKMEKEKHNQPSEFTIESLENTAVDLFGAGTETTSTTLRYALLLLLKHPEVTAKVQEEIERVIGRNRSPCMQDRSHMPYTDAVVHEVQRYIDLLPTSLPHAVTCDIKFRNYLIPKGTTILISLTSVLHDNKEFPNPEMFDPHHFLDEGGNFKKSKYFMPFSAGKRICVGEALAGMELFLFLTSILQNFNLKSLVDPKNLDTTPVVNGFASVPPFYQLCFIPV
Sequence of Cytochrome P450 3A4 (P08684 whole entry): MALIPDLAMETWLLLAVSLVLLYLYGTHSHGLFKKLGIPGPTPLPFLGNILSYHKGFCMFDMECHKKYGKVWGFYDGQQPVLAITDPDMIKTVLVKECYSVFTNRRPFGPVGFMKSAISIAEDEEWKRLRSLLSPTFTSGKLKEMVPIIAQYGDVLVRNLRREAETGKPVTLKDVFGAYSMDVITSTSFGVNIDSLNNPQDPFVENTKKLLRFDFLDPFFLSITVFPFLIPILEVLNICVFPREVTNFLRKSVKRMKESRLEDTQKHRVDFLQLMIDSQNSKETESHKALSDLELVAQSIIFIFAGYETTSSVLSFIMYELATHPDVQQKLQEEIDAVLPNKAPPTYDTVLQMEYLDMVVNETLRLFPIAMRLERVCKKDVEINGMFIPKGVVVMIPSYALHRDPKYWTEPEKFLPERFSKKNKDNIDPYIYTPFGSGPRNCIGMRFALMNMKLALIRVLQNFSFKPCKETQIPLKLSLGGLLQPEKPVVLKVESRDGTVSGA
Sequence of Cytochrome P450 2C19 (P33261 whole entry): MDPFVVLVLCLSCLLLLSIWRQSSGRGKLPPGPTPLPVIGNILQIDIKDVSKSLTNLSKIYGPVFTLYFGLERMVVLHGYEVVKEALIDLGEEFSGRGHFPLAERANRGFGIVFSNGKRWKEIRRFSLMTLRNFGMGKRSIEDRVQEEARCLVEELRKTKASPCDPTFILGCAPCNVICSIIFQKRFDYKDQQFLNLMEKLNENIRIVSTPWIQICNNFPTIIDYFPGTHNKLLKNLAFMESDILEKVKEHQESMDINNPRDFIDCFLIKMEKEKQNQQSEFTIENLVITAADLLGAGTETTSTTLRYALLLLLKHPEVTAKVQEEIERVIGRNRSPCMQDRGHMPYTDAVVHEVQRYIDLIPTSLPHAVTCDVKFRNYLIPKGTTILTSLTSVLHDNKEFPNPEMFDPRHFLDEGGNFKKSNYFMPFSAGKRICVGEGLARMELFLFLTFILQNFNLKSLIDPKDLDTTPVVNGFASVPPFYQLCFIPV
Sequence of Keap1/Nrf2 (Q16236 whole entry): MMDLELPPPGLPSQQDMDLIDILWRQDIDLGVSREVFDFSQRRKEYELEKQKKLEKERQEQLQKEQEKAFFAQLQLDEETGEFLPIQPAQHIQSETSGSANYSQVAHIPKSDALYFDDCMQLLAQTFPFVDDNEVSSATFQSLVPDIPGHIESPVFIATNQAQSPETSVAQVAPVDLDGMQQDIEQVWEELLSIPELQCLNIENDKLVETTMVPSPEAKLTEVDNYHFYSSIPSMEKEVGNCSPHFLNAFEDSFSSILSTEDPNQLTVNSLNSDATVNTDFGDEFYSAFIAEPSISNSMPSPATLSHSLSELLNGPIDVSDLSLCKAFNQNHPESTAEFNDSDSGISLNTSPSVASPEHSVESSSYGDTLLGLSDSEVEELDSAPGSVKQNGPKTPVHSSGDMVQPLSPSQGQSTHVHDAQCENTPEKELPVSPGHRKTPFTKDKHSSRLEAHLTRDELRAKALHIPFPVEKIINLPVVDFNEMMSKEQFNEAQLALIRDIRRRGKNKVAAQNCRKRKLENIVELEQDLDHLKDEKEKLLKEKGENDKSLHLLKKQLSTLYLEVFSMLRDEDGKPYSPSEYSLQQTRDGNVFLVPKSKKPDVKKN
Sequence of Keap1/Nrf2 (Q14145 whole entry): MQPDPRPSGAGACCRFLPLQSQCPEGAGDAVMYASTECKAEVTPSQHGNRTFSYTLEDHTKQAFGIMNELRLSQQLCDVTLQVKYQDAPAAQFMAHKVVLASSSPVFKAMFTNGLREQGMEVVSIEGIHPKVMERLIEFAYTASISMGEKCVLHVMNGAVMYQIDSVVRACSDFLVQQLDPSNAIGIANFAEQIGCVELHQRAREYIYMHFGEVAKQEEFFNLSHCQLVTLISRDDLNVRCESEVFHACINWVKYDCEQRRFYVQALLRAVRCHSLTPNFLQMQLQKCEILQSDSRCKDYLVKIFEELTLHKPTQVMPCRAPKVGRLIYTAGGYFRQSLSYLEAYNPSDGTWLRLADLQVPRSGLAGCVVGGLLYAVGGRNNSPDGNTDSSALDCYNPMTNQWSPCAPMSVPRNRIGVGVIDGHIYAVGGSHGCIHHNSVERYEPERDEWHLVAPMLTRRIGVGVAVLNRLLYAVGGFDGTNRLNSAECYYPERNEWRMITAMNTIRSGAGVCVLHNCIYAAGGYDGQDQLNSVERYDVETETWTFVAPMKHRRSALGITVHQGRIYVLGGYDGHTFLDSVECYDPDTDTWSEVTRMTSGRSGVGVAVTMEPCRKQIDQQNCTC

Structure (SMILES): C#CCn1c(S(=O)(=O)Cc2ccc(C)cc2)nc(-c2ccccc2)c1-c1ccccc1
- IC50 (Vero [1]): 3.84 µM (active)
- CC50 (Vero [2]): 22.6 µM (active)

Structure (SMILES): CCOC(=O)C1C(=O)C=C(/C=C/c2ccccc2)CC1c1ccc(Cl)cc1 (centres undefined)
- AC50 (Cytochrome P450 3A4): inconclusive
- AC50 (Cytochrome P450 2C9): 1.41 µM (inconclusive)
- AC50 (Cytochrome P450 2D6 [3]): 7.08 µM (inconclusive)

Structure (SMILES): CCOC(=O)c1ccc(NC(=O)CC2SCCNC2=O)cc1 (centres undefined)
- AC50 (A-375 [4]): > 35 µM (active)
- AC50 (A-375 [5]): > 35 µM (active)

Structure (SMILES): CC(C)c1nnc(N2C(=O)C(O)=C(C(=O)c3cccs3)C2c2ccccc2)s1 (centres undefined)
- EC50 [6]: 4.38 µM (inconclusive)
- EC50 [7]: 33.9 µM (inconclusive)
- AC50 (Keap1/Nrf2): 13.4 µM (active)

Structure (SMILES): Cc1ccc(NC(=O)Nc2ccc3oc(C)nc3c2)cc1
- EC50 [8]: 0.192 µM (active)
- AC50 (HeLa): 104 µM (active)
- EC50 [9]: 0.216 µM (active)
- EC50 [10]: < 0.1 µM (active)
- EC50 [11]: 0.346 µM (active)
- EC50 (H4): > 120 µM (not active)

Structure (SMILES): COc1ccc(C(=O)C[n+]2ccc3ccccc3c2C)cc1
- EC50 [8]: 0.646 µM (active)
- EC50 [9]: 0.375 µM (active)
- IC50 [12]: > 67.5 µM (inactive)
- IC50 (HEK293): > 67.5 µM (inactive)
- EC50 [10]: 0.235 µM (active)
- EC50 [11]: 0.402 µM (active)
- EC50 (H4): > 120 µM (not active)
- EC50 [13]: < 0.1 µM (active)

Structure (SMILES): CC(C)OC(=O)/C(=C\C=C\c1ccccc1)NC(=O)c1ccccc1
- AC50 (Cytochrome P450 2C9): 2.82 µM (inconclusive)
- AC50 (Cytochrome P450 2D6 [14]): inconclusive
- AC50 (Cytochrome P450 1A2): 3.55 µM (inconclusive)

Structure (SMILES): Cc1cc(C)c(-c2csc(NC(=O)/C=C/c3cccs3)n2)c(C)c1
- IC50 (Vero [1]): 23.2 µM (active)
- EC50 [15]: 9.05 µM (active)
- CC50 (Vero [2]): > 25 µM (active)
- EC50 [16]: > 120 µM (not active)
- EC50 [17]: 21.5 µM (active)

Structure (SMILES): O=C(CSC(=S)N1CCCCC1)c1c(F)cccc1F
- IC50 [12]: > 67.5 µM (inactive)
- IC50 (HEK293): > 67.5 µM (inactive)

Structure (SMILES): S=C(Nc1ccc(Cl)cc1)NC1CC2CCCC(C1)N2C1CCCC1 (centres undefined)
- AC50 (Cytochrome P450 3A4): inconclusive
- AC50 (Cytochrome P450 2C19): 22.4 µM (inconclusive)

Structure (SMILES): C/C(=N\OC(=O)c1cccc(C(F)(F)F)c1)c1sc(-c2ccccc2)nc1C
- AC50 (HeLa): 174 µM (active)
- CC50 [18]: 30.8 µM (active)

Structure (SMILES): COc1cccc2c1C(=O)c1c(O)c3c(c(O)c1C2=O)C[C@@](O)(C(C)=O)C[C@@H]3O[C@H]1C[C@H](N)[C@H](O)[C@H](C)O1 [DAUNORUBICIN]
- IC50 [19]: 0.118 µM (active)
- IC50 [20]: 0.0464 µM (active)
- IC50 [21]: 1.47 µM (active)
- IC50 [22]: 0.648 µM (active)
- IC50 [23]: 0.0102 µM (active)
- AC50 (Cytochrome P450 2D6 [14]): inactive
- IC50 [24]: 0.188 µM (active)
- IC50 [25]: 0.0554 µM (active)
- IC50 [26]: 0.0509 µM (active)
- IC50 [27]: 0.338 µM (active)
- AC50 (Cytochrome P450 1A2): 31.6 µM (inconclusive)
